Experimental data published in article PMC4838304, “Effective Design of Multifunctional Peptides by Combining Compatible Functions” (PLoS Computational Biology, 2016).
Ends that are not written are not given here.

System: Escherichia coli strain DH5α
Experiment: microbe, parasite or virus in culture
Assay type: cell-based
Settings: for MIC: DH5α, 24 h, read-out: E. coli MIC for 50% inhibition
Excerpt: If CPP, DNA binding and AMP activities are compatible, the designed peptides should inhibit bacterial growth. Here we exposed E. coli DH5α cells to varying low concentrations of the designed peptides as well as several controls (see Fig 4). […] To test whether α-factor was important for AMP activity we also tested pure α-factor, pure NLS, the optimized NLS fitting CPP rules (NLS-CE) and the Iztli-1 peptide, a previously reported peptide with an embedded α-factor specifically designed to have antibacterial activity. […] A linear trend could be observed between concentration and growth inhibition (regression lines with standard deviations shown in Fig 6). […] The minimal inhibitory concentrations for E. coli are reported in Table 2 (growth curves are shown in S4 Fig).
Fig 6 Antibacterial activity. DH5α E. coli cells were treated with varying concentrations of peptides ranging from 0 to 16 μM for the peptides and 0 to 48 μM for Ampicillin. The relative area under the growth curve measured the growth inhibition. Measurements from four repetitions distributed onto two different plates are shown as dots colored by their respective concentrations. Linear regressions are shown as blue lines and their respective standard errors as blue shades. Dashed lines indicate the mean area under the curve for the H2O controls and its 50% value respectively. Minimal inhibitory concentrations to achieve 50% or 100% of cell growth inhibition are reported.
Escherichia coli strain DH5α was grown for 12 hours to mid-log phase and diluted to 8·10^5 cells/ml by using the reference OD obtained by absorption spectroscopy. Each sample 100μL culture was treated with 50μL solution containing the respective peptide in the desired concentration or water in the case of the controls. Growth curves were measured on two 96 well half area plates with two replicates each followed for 24h using a plate reader (Synergy, USA). In order to minimize plate-specific effects due to variations in loading time or initial cell numbers, different plates measurements were normalized by the time-point where the water control samples reached their half-maximal OD before combining. The respective minimum from each growth curve was subtracted from the normalized data from individual or combined plates. Areas under the curves were obtained by applying a linear interpolation to the OD curves, which was then integrated exactly. Growth rates were obtained by log-transforming the growth curves, identifying the exponential phase by the linear parts in that log-transformation (OD600 between 0.05 and 0.5) and performing a linear regression in the exponential phase with the slope denoting the respective growth rate. All mentioned methodology was implemented in R (www.r-project.org) and is available as open source at http://github.com/cdiener/dcf.
Using the slope of the linear regressions determined in these experiments, we estimated the minimal inhibitory concentration (MIC) for E. coli of our 3 CPP designed peptides (α-NLS-C, NLS-α-CE and chimera) and tested it experimentally.

[1] = E. coli DH5α, peptides 0 to 16 μM

Row | Sequence | MIC [µM] | concentration abolishing E. coli growth completely [1] [µM] | concentration showing partial growth inhibition [1] [µM]
1 | FRKWRRKPKKKRKVWWRKVKRRWHWLQLKPGQPMY [NLS-α-CE] | <2 | 2 | 
2 | KRRWRFVWMNPKKKRKVPPWPYLLWWHWLQLKPGQPMY [chimera] | 4 |  | 2
